IC50 data for 26 molecules are collected here from patent US10538512B2, “Aminoacylindazole immunomodulators for treatment of autoimmune diseases” (The Rockefeller University, priority 2016, dated 2020).

For one assay, the target named is T1, Human FXIIa (Homo sapiens, UniProt P00748).
T1 construct: active coagulation factor XII (FXIIa); purchased Enzyme Research Labs
T1 sequence (P00748 373-615 limits assumed): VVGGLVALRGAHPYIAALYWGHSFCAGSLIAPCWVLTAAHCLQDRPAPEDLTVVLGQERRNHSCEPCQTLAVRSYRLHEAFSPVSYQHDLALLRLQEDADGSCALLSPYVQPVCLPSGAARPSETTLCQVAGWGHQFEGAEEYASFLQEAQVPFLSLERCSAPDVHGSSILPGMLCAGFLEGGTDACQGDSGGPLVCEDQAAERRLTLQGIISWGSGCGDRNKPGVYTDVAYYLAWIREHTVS
T1 sequence (P00748 20-372 partner limits assumed): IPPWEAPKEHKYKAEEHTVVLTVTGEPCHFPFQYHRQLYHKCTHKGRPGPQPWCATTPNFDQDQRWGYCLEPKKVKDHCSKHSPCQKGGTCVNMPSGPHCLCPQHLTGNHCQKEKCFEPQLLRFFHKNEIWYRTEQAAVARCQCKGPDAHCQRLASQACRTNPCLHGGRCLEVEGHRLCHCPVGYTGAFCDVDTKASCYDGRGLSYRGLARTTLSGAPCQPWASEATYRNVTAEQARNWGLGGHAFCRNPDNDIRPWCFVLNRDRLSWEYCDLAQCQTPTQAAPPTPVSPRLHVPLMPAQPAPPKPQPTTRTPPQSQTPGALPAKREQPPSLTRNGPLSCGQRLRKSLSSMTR
The experiment in a line: Factor XIIa (FXIIa) inhibitory activity, chromogenic substrate assay. Type of assay: biochemical. Particulars: Human FXIIa 12.5 nM, Pefachrome XIIa 400 μM, 10 min preincubation. In a few lines:
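Buffer was 0.5× HBSS with 25 mM HEPES pH 7.4 and 0.5× TBS-Tween 0.05%. Enzyme and compound (about 1–100 μM) were preincubated 10 min at room temperature, then Pefachrome XIIa was added at 400 μM final. Substrate cleavage was followed as the rate of A405 change at 37 °C.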

Another assay concerns the target T2, Human alpha-thrombin (Homo sapiens, UniProt P00734).
T2 construct: Human alpha-thrombin (Enzyme Research Labs); purchased Enzyme Research Labs
The experiment in a line: Thrombin counterscreen for selectivity, fluorogenic substrate assay. Particulars: Human alpha-thrombin 12.5 nM, Boc-Val-Pro-Arg-AMC 20 μM, 10 min preincubation. Type of assay: biochemical. In a few lines:
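Compounds, about 1–100 μM, preincubated 10 min at room temperature with enzyme, then Boc-Val-Pro-Arg-AMC added at 20 μM final.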

What is called IC50 is the concentration that inhibits the measured activity by half. A low value points to higher potency. Turning to `CCn1c(C)cc2c(C(=O)n3nc4c(c3N)CCCC4)cccc21` [Example 38, (3-amino-4,5,6,7-tetrahydroindazol-2-yl)(1-ethyl-2-methyl-1H-indol-4-yl)methanone], the IC50 on Human FXIIa amounted to 0.04 µM; against Human alpha-thrombin, 44 µM.
With `CCc1ccccc1C(=O)n1nc2c(c1N)CCCC2` [Example 40, (3-amino-4,5,6,7-tetrahydroindazol-2-yl)(2-ethylphenyl)methanone], the IC50 at Human FXIIa is 15 µM; on Human alpha-thrombin, > 100 µM.
In the case of `Nc1c2c(nn1C(=O)c1coc3ccccc13)CCCC2` [Example 41, (3-amino-4,5,6,7-tetrahydroindazol-2-yl)(benzofuran-3-yl)methanone], the IC50 at Human FXIIa was 1.2 µM; against Human alpha-thrombin it was > 100 µM.
`Nc1c2c(nn1C(=O)c1c[nH]c3ccccc13)CCCC2` [Example 42, (3-amino-4,5,6,7-tetrahydroindazol-2-yl)(1H-indol-3-yl)methanone]: the IC50 at Human FXIIa was 11 µM; on Human alpha-thrombin it was > 100 µM.
Consider `CCn1cc(C(=O)n2nc3c(c2N)CCCC3)c2ccccc21` [Example 43, (3-amino-4,5,6,7-tetrahydroindazol-2-yl)(1-ethyl-1H-indol-3-yl)methanone], for which the figures for the 50% inhibitory concentration (IC50) against Human FXIIa and at Human alpha-thrombin were 7.5 µM and > 100 µM, respectively.
For `CCn1c(C)c(C(=O)n2nc3c(c2N)CCCC3)c2ccccc21` [Example 45, (3-amino-4,5,6,7-tetrahydroindazol-2-yl)(1-ethyl-2-methyl-1H-indol-3-yl)methanone] the same measures were 12 µM and > 100 µM.
Turning to `Nc1c2c(nn1C(=O)C1CCc3ccccc31)CCCC2` (stereo not shown) [Example 46, (3-amino-4,5,6,7-tetrahydroindazol-2-yl)(2,3-dihydro-1H-inden-1-yl)methanone], the values for the IC50 on Human FXIIa and on Human alpha-thrombin were 7.5 µM and > 50 µM, respectively.
Consider `Nc1c2c(nn1C(=O)c1cccc3[nH]cnc13)CCCC2` [Example 48, (3-amino-4,5,6,7-tetrahydroindazol-2-yl)(1H-benzo[d]imidazol-4-yl)methanone], for which the IC50 on Human FXIIa and against Human alpha-thrombin was > 100 µM in each case.
For `CCc1cc2c(C(=O)n3nc4c(c3N)CCCC4)cccc2[nH]1` [Example 50, (3-amino-4,5,6,7-tetrahydroindazol-2-yl)(2-ethyl-1H-indol-4-yl)methanone], the IC50 turned out to be 0.01 µM on Human FXIIa and 25 µM against Human alpha-thrombin.
With `Cc1cc2ccc(C(=O)n3nc4c(c3N)CCCC4)cc2o1` [Example 60, (3-amino-4,5,6,7-tetrahydroindazol-2-yl)(2-methylbenzofuran-6-yl)methanone], the IC50 is 17 µM at Human FXIIa and 22 µM at Human alpha-thrombin.
Take `Cc1cc2ccc(C(=O)n3nc(N)c4c3CCCC4)cc2o1` [Example 61, (3-amino-4,5,6,7-tetrahydroindazol-1-yl)(2-methylbenzofuran-6-yl)methanone]: the IC50 against Human FXIIa was > 50 µM; against Human alpha-thrombin, 20 µM.
With `Nc1nn(C(=O)C2CCNc3ccccc32)c2ccccc12` (stereo not shown) [Example 77, (3-amino-1H-indazol-1-yl)(1,2,3,4-tetrahydroquinolin-4-yl)methanone], the IC50 on Human FXIIa and on Human alpha-thrombin was > 100 µM in each case.
For the molecule `COc1ccc(C(=O)n2nc3c(c2N)CCCC3)c2cc[nH]c12` [Example 80, (3-amino-4,5,6,7-tetrahydroindazol-2-yl)(7-methoxy-1H-indol-4-yl)methanone], the IC50 against Human FXIIa turned out to be 0.25 µM; against Human alpha-thrombin, 68 µM.
Take `Cc1cc2c([nH]1)CCCC2C(=O)n1nc2c(c1N)CCCC2` (stereo not shown) [Example 81, (3-amino-4,5,6,7-tetrahydroindazol-2-yl)(2-methyl-4,5,6,7-tetrahydro-1H-indol-4-yl)methanone]: the figures for the IC50 against Human FXIIa and against Human alpha-thrombin were 0.3 µM and > 50 µM, respectively.
As for `Cc1cc2c(o1)CCCC2C(=O)n1nc2c(c1N)CCCC2` (stereo not shown) [Example 85, (3-amino-4,5,6,7-tetrahydro-2H-indazol-2-yl)(2-methyl-4,5,6,7-tetrahydrobenzofuran-4-yl)methanone], the IC50 at Human FXIIa came out at 0.4 µM; against Human alpha-thrombin it was 30 µM.
Turning to `Cc1cc2c(s1)CCCC2C(=O)n1nc2c(c1N)CCCC2` (stereo not shown) [Example 86, (3-amino-4,5,6,7-tetrahydroindazol-2-yl)(2-methyl-4,5,6,7-tetrahydrobenzo[b]thiophen-4-yl)methanone], the IC50 was 0.5 µM against Human FXIIa and > 80 µM on Human alpha-thrombin.
Take `Cc1cc2c(n1S(C)(=O)=O)CCCC2C(=O)n1nc2c(c1N)CCCC2` (stereo not shown) [Example 90, (3-amino-4,5,6,7-tetrahydroindazol-2-yl)(2-methyl-1-(methylsulfonyl)-4,5,6,7-tetrahydro-1H-indol-4-yl)methanone]: the IC50 was 0.3 µM against Human FXIIa and 18 µM against Human alpha-thrombin.
As for `CS(=O)(=O)N1CCC(C(=O)n2nc3c(c2N)CCCC3)c2ccccc21` (stereo not shown) [Example 99, (3-amino-4,5,6,7-tetrahydroindazol-2-yl)(1-(methylsulfonyl)-1,2,3,4-tetrahydroquinolin-4-yl)methanone], the IC50 on Human FXIIa stood at 1 µM; on Human alpha-thrombin, 22 µM.
Regarding `COC1CCc2c(c(N)nn2C(=O)c2cccc3[nH]c(C)cc23)C1` (stereo not shown) [Example 120, (3-amino-5-methoxy-4,5,6,7-tetrahydro-2H-indazol-1-yl)(2-methyl-1H-indol-4-yl)methanone], the IC50 was 10 µM against Human FXIIa and > 80 µM at Human alpha-thrombin.
For `Cc1cc2c(C(=O)n3nc4c(c3N)CC(F)(F)CC4)cccc2[nH]1` [Example 121, (3-amino-5,5-difluoro-4,5,6,7-tetrahydro-2H-indazol-2-yl)(2-methyl-1H-indol-4-yl)methanone] the same measures were 0.02 µM and 9 µM.
In the case of `Cc1cc2c(C(=O)n3nc(N)c4c3CCC(F)(F)C4)cccc2[nH]1` [Example 122, (3-amino-5,5-difluoro-4,5,6,7-tetrahydro-2H-indazol-1-yl)(2-methyl-1H-indol-4-yl)methanone], the IC50 amounted to 0.7 µM against Human FXIIa and 25 µM against Human alpha-thrombin.
`Nc1nn(C(=O)c2ccnc3cc(Cl)ccc23)c2c1CCCC2` [Example 124, (3-amino-4,5,6,7-tetrahydro-2H-indazol-1-yl)(7-chloroquinolin-4-yl)methanone]: the IC50 on Human FXIIa and against Human alpha-thrombin was 60 µM in each case.
For `CCc1ccccc1C(=O)n1nc(N)c2c1CCCC2` [Example 152], the IC50 is 25 µM against Human FXIIa and > 100 µM against Human alpha-thrombin.
On the same counts, the results for `Cc1[nH]c2ccccc2c1C(=O)n1nc(N)c2c1CCCC2` [Example 154] are 17 µM and > 50 µM.
Consider `Nc1nn(C(=O)c2cccc3[nH]ncc23)c2c1CCCC2` [Example 157], for which the IC50 at Human FXIIa is 30 µM; at Human alpha-thrombin it was > 100 µM.
With `Cc1cc2c(C(=O)n3nc4c(c3N)CC(O)CC4)cccc2[nH]1` (stereo not shown) [Example 161], the IC50 at Human FXIIa is 0.06 µM; on Human alpha-thrombin it was > 100 µM.
